As usually defined, the EC50 is the concentration at which the effect is half-maximal.

This experiment addresses T1, human VDR (Homo sapiens, UniProt P11473).
T1 sequence (P11473 1-427): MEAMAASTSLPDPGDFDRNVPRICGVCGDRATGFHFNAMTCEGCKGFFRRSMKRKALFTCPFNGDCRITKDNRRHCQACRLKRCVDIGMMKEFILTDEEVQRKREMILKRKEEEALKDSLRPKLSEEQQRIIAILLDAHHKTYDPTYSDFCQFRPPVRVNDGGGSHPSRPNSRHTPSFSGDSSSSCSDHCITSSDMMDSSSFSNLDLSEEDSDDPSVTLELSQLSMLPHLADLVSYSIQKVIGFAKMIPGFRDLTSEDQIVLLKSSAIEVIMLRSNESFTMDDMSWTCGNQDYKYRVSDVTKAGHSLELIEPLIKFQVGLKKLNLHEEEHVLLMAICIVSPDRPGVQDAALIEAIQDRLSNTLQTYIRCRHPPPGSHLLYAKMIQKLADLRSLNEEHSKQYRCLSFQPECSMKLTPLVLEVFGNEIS
T1 sequence (P19793 1-462 partner): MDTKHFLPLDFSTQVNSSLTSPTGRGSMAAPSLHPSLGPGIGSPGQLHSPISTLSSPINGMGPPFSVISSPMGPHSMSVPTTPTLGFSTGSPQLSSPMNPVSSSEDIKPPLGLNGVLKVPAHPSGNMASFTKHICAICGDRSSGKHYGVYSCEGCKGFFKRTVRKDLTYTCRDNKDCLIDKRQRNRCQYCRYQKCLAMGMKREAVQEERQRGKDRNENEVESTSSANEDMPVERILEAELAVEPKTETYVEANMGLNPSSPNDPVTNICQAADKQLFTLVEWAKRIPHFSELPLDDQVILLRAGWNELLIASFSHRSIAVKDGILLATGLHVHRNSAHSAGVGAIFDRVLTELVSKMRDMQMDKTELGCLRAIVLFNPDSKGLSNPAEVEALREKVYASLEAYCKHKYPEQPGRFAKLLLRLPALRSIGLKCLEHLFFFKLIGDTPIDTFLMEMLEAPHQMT
As to the kind of experiment: Evaluation of VDR transcription activity in human osteoblasts (HOS cells), luciferase reporter. As to conditions: Activity (EC50, VDR transcription activity), HOS cells transfected with human VDR, human RXRα and DR3 luciferase reporter; 21 hours. For orientation: In a reporter assay the amount or activity of a reporter protein is the signal.

On to `C=C1[C@H](O)CC(=C/C=C2\CCC[C@]3(C)[C@@H]([C@@H](C)CN4CCC(C(F)(F)F)CC4)CC[C@@H]23)C[C@H]1O` [Compound C060, (1R,3R)-5-(2-((1R,3aS,7aR,E)-7a-methyl-1-((R)-1-(4-(trifluoromethyl)piperidin-1-yl)propan-2-yl)octahydro-4H-inden-4-ylidene)ethylidene)-2-methylenecyclohexane-1,3-diol], for which the EC50 lay in the range of 1 to 10 nM.

`C=C1/C(=C\C=C2/CCC[C@]3(C)[C@@H]([C@@H](C)CN4CCC(C)(O)CC4)CC[C@@H]23)C[C@@H](O)C[C@@H]1O` [Compound C029, (1R,3S,Z)-5-(2-((1R,3aS,7aR,E)-1-((R)-1-(4-hydroxy-4-methylpiperidin-1-yl)propan-2-yl)-7a-methyloctahydro-4H-inden-4-ylidene)ethylidene)-4-methylenecyclohexane-1,3-diol] displayed an EC50 of 100 to 1000 nM.

Turning to `C=C1[C@H](O)CC(=C/C=C2\CCC[C@]3(C)[C@@H]([C@@H](C)CN4CCC(O)(C(F)F)CC4)CC[C@@H]23)C[C@H]1O` [Compound C026, (1R,3R)-5-(2-((1R,3aS,7aR,E)-1-((R)-1-(4-(difluoromethyl)-4-hydroxypiperidin-1-yl)propan-2-yl)-7a-methyloctahydro-4H-inden-4-ylidene)ethylidene)-2-methylenecyclohexane-1,3-diol], the EC50 was in the range of 1 to 10 nM.

For `C=C1[C@H](O)CC(=C/C=C2\CCC[C@]3(C)[C@@H]([C@H](C)CN4CCC[C@](C)(O)C4)CC[C@@H]23)C[C@H]1O` [Compound C041, (1R,3R)-5-(2-((1R,3aS,7aR,E)-1-((S)-1-((S)-3-hydroxy-3-methylpiperidin-1-yl)propan-2-yl)-7a-methyloctahydro-4H-inden-4-ylidene)ethylidene)-2-methylenecyclohexane-1,3-diol], the EC50 is < 1 nM.

Turning to `C=C1[C@H](O)CC(=C/C=C2\CCC[C@]3(C)[C@@H]([C@H](C)CCN4CCO[C@H](C)C4)CC[C@@H]23)C[C@H]1O` [Compound D040, (1R,3R)-5-(2-((1R,3aS,7aR,E)-7a-methyl-1-((R)-4-((R)-2-methylmorpholino)butan-2-yl)octahydro-4H-inden-4-ylidene)ethylidene)-2-methylenecyclohexane-1,3-diol], the EC50 is 1 to 10 nM.

`C[C@H](CN1CCCC(O)(C(F)F)C1)[C@H]1CC[C@H]2/C(=C/C=C3C[C@@H](O)C[C@H](O)C3)CCC[C@]12C` (single isomer, unassigned) [Compound C035b] returned an EC50 of 10 to 100 nM.

Turning to `C=C1/C(=C\C=C2/CCC[C@]3(C)[C@@H]([C@H](C)CN4CC[C@H](C(C)(F)F)C4)CC[C@@H]23)C[C@@H](O)C[C@@H]1O` [Compound B028, (1R,3S,Z)-5-(2-((1R,3aS,7aR,E)-1-((S)-1-((S)-3-(1,1-difluoroethyl)pyrrolidin-1-yl)propan-2-yl)-7a-methyloctahydro-4H-inden-4-ylidene)ethylidene)-4-methylenecyclohexane-1,3-diol], the EC50 is < 1 nM.

In turn, `C=C1[C@H](O)CC(=C/C=C2\CCC[C@]3(C)[C@@H]([C@H](C)CN4CC(C(C)(F)F)C4)CC[C@@H]23)C[C@H]1O` [Compound A007, (1R,3R)-5-(2-((1R,3aS,7aR,E)-1-((S)-1-(3-(1,1-difluoroethyl)azetidin-1-yl)propan-2-yl)-7a-methyloctahydro-4H-inden-4-ylidene)ethylidene)-2-methylenecyclohexane-1,3-diol] returned an EC50 of 10 to 100 nM.

`C=C1[C@H](O)CC(=C/C=C2\CCC[C@]3(C)[C@@H]([C@@H](C)CN4CCC(C(C)(F)F)CC4)CC[C@@H]23)C[C@H]1O` [Compound C057, (1R,3R)-5-(2-((1R,3aS,7aR,E)-1-((R)-1-(4-(1,1-difluoroethyl)piperidin-1-yl)propan-2-yl)-7a-methyloctahydro-4H-inden-4-ylidene)ethylidene)-2-methylenecyclohexane-1,3-diol] gave an EC50 of 1 to 10 nM.

Molecule `C[C@H](CN1CC[C@H](F)C1)[C@H]1CC[C@H]2/C(=C/C=C3C[C@@H](O)C[C@H](O)C3)CCC[C@]12C` [Compound B012, (1R,3R)-5-(2-((1R,3aS,7aR,E)-1-((S)-1-((S)-3-fluoropyrrolidin-1-yl)propan-2-yl)-7a-methyloctahydro-4H-inden-4-ylidene)ethylidene)cyclohexane-1,3-diol] returned an EC50 of 100 to 1000 nM.

Consider `C=C1/C(=C\C=C2/CCC[C@]3(C)[C@@H]([C@H](C)CN4CCC(O)(C(F)(F)F)CC4)CC[C@@H]23)C[C@@H](O)[C@H](C)[C@@H]1O` [Compound C003, (1R,2S,3S,Z)-5-(2-((1R,3aS,7aR,E)-1-((S)-1-(4-hydroxy-4-(trifluoromethyl)piperidin-1-yl)propan-2-yl)-7a-methyloctahydro-4H-inden-4-ylidene)ethylidene)-2-methyl-4-methylenecyclohexane-1,3-diol], for which the EC50 was 10 to 100 nM.

For `C=C1[C@H](O)CC(=C/C=C2\CCC[C@]3(C)[C@@H]([C@H](C)CN4CCC(O)(C(F)(F)F)C4)CC[C@@H]23)C[C@H]1O` (single isomer, unassigned) [Compound B046a], the EC50 is < 1 nM.

As for `C=C1[C@H](O)CC(=C/C=C2\CCC[C@]3(C)[C@@H]([C@H](C)CN4CC[C@H](OC(F)F)C4)CC[C@@H]23)C[C@H]1O` [Compound B049, (1R,3R)-5-(2-((1R,3aS,7aR,E)-1-((S)-1-((S)-3-(difluoromethoxy)pyrrolidin-1-yl)propan-2-yl)-7a-methyloctahydro-4H-inden-4-ylidene)ethylidene)-2-methylenecyclohexane-1,3-diol], the EC50 fell in the range of 1 to 10 nM.

For the molecule `C=C1/C(=C\C=C2/CCC[C@]3(C)[C@@H]([C@@H](C)CN4CCCC(O)(C(F)(F)F)C4)CC[C@@H]23)C[C@@H](O)C[C@@H]1O` (single isomer, unassigned) [Compound C033a], the EC50 is < 1 nM.

In the case of `C=C1[C@H](O)CC(=C/C=C2\CCC[C@]3(C)[C@@H]([C@H](C)CN4CC[C@@H](OC(F)F)C4)CC[C@@H]23)C[C@H]1O` [Compound B050, (1R,3R)-5-(2-((1R,3aS,7aR,E)-1-((S)-1-((R)-3-(difluoromethoxy)pyrrolidin-1-yl)propan-2-yl)-7a-methyloctahydro-4H-inden-4-ylidene)ethylidene)-2-methylenecyclohexane-1,3-diol], the EC50 was in the range of 1 to 10 nM.

In turn, `C=C1[C@H](O)CC(=C/C=C2\CCC[C@]3(C)[C@@H]([C@H](C)CCN4C[C@@H](C)OC[C@H]4C)CC[C@@H]23)C[C@H]1O` [Compound D039, (1R,3R)-5-(2-((1R,3aS,7aR,E)-1-((R)-4-((2R,5R)-2,5-dimethylmorpholino)butan-2-yl)-7a-methyloctahydro-4H-inden-4-ylidene)ethylidene)-2-methylenecyclohexane-1,3-diol] had an EC50 of 1 to 10 nM.

For the molecule `C=C1[C@H](O)CC(=C/C=C2\CCC[C@]3(C)[C@@H]([C@H](C)CN4CCOC[C@@H]4C)CC[C@@H]23)C[C@H]1O` [Compound D015, (1R,3R)-5-(2-((1R,3aS,7aR,E)-7a-methyl-1-((S)-1-((S)-3-methylmorpholino)propan-2-yl)octahydro-4H-inden-4-ylidene)ethylidene)-2-methylenecyclohexane-1,3-diol], the EC50 is 10 to 100 nM.

Molecule `C=C1/C(=C\C=C2/CCC[C@]3(C)[C@@H]([C@H](C)CN4CC(O)(C(F)(F)F)C4)CC[C@@H]23)C[C@@H](O)C[C@@H]1O` [Compound A009, (1R,3S,Z)-5-(2-((1R,3aS,7aR,E)-1-((S)-1-(3-hydroxy-3-(trifluoromethyl)azetidin-1-yl)propan-2-yl)-7a-methyloctahydro-4H-inden-4-ylidene)ethylidene)-4-methylenecyclohexane-1,3-diol] displayed an EC50 of 1 to 10 nM.

On to `C=C1[C@H](O)CC(=C/C=C2\CCC[C@]3(C)[C@@H]([C@H](C)CN4CCC(O)(C5CC5)C4)CC[C@@H]23)C[C@H]1O` (stereo partly drawn) [Compound B077, (1R,3R)-5-(2-((1R,3aS,7aR,E)-1-((2S)-1-(3-cyclopropyl-3-hydroxypyrrolidin-1-yl)propan-2-yl)-7a-methyloctahydro-4H-inden-4-ylidene)ethylidene)-2-methylenecyclohexane-1,3-diol], for which the EC50 lay within 10 to 100 nM.

Regarding `C=C1/C(=C\C=C2/CCC[C@]3(C)[C@@H]([C@H](C)CN4CCCC(C)(O)C4)CC[C@@H]23)C[C@@H](O)C[C@@H]1O` (single isomer, unassigned) [Compound C037b], the EC50 is 10 to 100 nM.

Turning to `C=C1/C(=C\C=C2/CCC[C@]3(C)[C@@H]([C@H](C)CN4CCCC(C)(OC)C4)CC[C@@H]23)C[C@@H](O)C[C@@H]1O` (single isomer, unassigned) [Compound C043a], the EC50 lay in the range of 1 to 10 nM.

The values are drawn from patent publication US20230348376A1 (TEIJIN PHARMA LIMITED, priority 2020, published 2023).
